Measurements as given in article doi:10.1101/2025.02.26.640120v1 (biorxiv, 2025).
Where two headings read alike, the source gives them in different places.

Assays:
in vitro [1] = conditions: mouse, att-20 cells
in vitro [2] = experiment: in vitro; parameters: species or system AtT-20; conditions: mouse, att-20 cells, AtT-20 cell viability at 25µM, % of control
in vitro [3] = conditions: mouse, att-20 cells; remark: listed apart in the source
full length USP8 = molecular target: T1, full length USP8 (Homo sapiens, UniProt P40818); experiment: Ub-Rho hydrolysis, dose response; assay type: biochemical
T1 sequence (P40818 1-1118): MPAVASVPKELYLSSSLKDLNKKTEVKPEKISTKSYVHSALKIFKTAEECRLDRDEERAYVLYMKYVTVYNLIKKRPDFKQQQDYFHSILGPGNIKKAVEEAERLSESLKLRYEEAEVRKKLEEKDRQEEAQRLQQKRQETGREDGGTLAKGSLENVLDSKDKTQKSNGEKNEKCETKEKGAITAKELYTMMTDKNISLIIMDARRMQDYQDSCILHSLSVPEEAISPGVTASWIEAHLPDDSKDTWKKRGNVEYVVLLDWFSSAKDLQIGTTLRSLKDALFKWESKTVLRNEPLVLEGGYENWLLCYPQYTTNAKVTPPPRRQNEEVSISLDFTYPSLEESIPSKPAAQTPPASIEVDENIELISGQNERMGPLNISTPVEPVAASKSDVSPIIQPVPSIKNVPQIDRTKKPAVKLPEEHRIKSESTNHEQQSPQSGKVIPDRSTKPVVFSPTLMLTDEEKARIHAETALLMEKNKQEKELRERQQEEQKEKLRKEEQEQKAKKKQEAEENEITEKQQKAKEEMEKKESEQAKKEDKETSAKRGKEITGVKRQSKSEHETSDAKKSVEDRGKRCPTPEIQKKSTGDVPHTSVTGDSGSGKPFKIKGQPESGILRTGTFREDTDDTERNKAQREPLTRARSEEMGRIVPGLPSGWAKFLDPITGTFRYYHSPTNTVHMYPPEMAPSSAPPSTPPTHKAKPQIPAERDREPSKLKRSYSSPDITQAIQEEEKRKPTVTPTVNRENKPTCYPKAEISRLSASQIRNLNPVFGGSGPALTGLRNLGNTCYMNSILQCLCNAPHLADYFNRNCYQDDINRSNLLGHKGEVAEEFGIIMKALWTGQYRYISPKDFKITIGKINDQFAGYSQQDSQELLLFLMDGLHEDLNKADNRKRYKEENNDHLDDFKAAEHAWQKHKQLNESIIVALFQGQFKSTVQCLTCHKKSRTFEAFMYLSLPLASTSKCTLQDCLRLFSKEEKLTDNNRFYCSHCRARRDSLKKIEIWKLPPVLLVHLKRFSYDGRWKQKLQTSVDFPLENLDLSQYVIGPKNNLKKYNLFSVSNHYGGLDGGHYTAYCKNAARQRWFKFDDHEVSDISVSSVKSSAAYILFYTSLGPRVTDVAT

AtT-20 = experiment: in vitro; conditions: Ambinter Amb2704313 batch; 24 h

Cc1ccc(NC(=O)Cn2ccccc2=O)c(OCc2ccccc2)c1 [ZINC55784788]
viability at 24 h, 25 µM (in vitro [1]): 96%

O=C(Nc1cc(Cl)ccc1Cl)c1cc(I)cc(I)c1O [ZINC4014105]
viability at 24 h, 25 µM (in vitro [2]): 95.7%

O=C(Nc1ccc(O)cc1)c1cc(I)ccc1O [ZINC194061705]
viability at 24 h, 25 µM (in vitro [1]): 107%

CC(=O)Oc1c(I)cc(I)cc1C(=O)Nc1ccc(Cl)cc1 [Clioxanide]
viability at 24 h, 25 µM (in vitro [3]): 94.2%

O=C(Nc1ccc([N+](=O)[O-])cc1Cl)c1cc(Cl)ccc1O [Niclosamide]
viability at 24 h, 27 µM (in vitro [3]): 50%

O=C(Nc1ccccc1)c1ccccc1O [salicylanilide backbone]
IC50 (full length USP8): > 50 µM

O=C(Nc1ccc(Oc2ccc(Cl)cc2)c(Cl)c1)c1cc(I)cc(I)c1O [Rafoxanide]
viability at 24 h, 25 µM (in vitro [2]): 56.2% | AtT-20 cell viability at 25µM, % of control (AtT-20): 39.3%

Cc1ccc(C(=O)c2cc(NC(=O)c3cc(I)cc(I)c3O)ccc2Cl)cc1 [ZINC72119086]
viability at 24 h, 25 µM (in vitro [2]): 109%

O=C(Nc1ccc(Cl)cc1)c1cc(I)cc(I)c1O [ZINC4014104]
IC50 (full length USP8; 0.1 µM Ub-Rho): 11.9 µM | viability at 24 h, 25 µM (in vitro [2]): 58.8%

Cc1ccc(NC(=O)c2cc(I)cc(I)c2O)cc1 [ZINC4014108]
IC50 (full length USP8; 0.1 µM Ub-Rho): 14.6 µM | viability at 24 h, 25 µM (in vitro [2]): 93.5%

O=C(Nc1ccc(Cl)cc1Cl)c1cc(I)cc(I)c1O [ZINC4181894]
viability at 24 h, 25 µM (in vitro [2]): 89.6%

O=C(CSc1ccccc1F)Nc1cccc(OCc2ccccn2)c1 [ZINC32922917]
viability at 24 h, 25 µM (in vitro [2]): 101%

O=C(Nc1ccc(Cl)cc1C(=O)c1ccccc1F)c1ccc(=O)[nH]c1 [ZINC9579366]
viability at 24 h, 25 µM (in vitro [1]): 103%

O=C(Nc1cc(Cl)cc(Cl)c1O)c1c(O)c(Cl)cc(Cl)c1Cl [Oxyclozanide]
viability at 24 h, 25 µM (in vitro [3]): 98.1%

O=C(Nc1cc(Cl)cc(Cl)c1)c1cc(I)cc(I)c1O [ZINC4014253]
viability at 24 h, 25 µM (in vitro [2]): 68%

O=C(NCc1cccc(OCc2ccccn2)c1)c1csc(Br)c1 [ZINC40111866]
viability at 24 h, 25 µM (in vitro [2]): 98.9%
